The results in this text go back to ChEMBL document CHEMBL4673406, “Discovery and Preclinical Evaluation of BMS-986242, a Potent, Selective Inhibitor of Indoleamine-2,3-dioxygenase 1” (ACS Med Chem Lett, 2021).

The target in series [1] is T1, Indoleamine 2,3-dioxygenase 1 (Homo sapiens, UniProt P14902). The experiment in a line: Inhibition of IDO1 in IFNgamma/LPS-stimulated human whole blood preincubated for 4 hrs followed by IFNgamma/LPS stimulation and incubated for 18 hrs by Rapid-fire mass spectrometry analysis. Format: tissue-based.
T1 sequence (P14902 whole entry): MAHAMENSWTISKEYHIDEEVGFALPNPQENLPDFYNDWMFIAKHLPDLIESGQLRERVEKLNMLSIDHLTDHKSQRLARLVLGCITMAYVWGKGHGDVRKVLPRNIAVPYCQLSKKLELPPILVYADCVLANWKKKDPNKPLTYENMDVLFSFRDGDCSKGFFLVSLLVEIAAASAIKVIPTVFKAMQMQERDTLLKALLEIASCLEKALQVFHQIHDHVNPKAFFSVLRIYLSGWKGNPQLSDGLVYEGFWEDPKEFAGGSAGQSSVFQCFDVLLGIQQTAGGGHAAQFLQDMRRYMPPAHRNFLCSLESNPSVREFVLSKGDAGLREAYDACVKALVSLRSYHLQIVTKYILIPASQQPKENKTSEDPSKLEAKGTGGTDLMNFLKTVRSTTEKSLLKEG
Series [2] has as its target Indoleamine 2,3-dioxygenase 1 (Mus musculus, UniProt P28776). The experiment in a line: Inhibition of IDO1 in IFNgamma-stimulated mouse M109 cells preincubated for 2 hrs followed by IFNgamma stimulation and measured after 18 hrs by. Format: cell-based.
Series [3] concerns the target T1, Indoleamine 2,3-dioxygenase 1. The experiment in a line: Inhibition of IDO1 in IFNgamma-stimulated human HeLa cells preincubated for 2 hrs followed by IFNgamma stimulation and measured after 18 hrs by.
The nature of series [4]: in vitro. As to conditions: mouse, liver microsomes. For orientation: Liver microsomes are vesicles of endoplasmic reticulum, rich in cytochrome P450 enzymes.
Description: Metabolic stability in mouse liver microsomes assessed as parent compound remaining at 0.5 uM measured after 10 mins
The nature of series [5]: in vitro. As to conditions: human, liver microsomes.
Description: Metabolic stability in human liver microsomes assessed as parent compound remaining at 0.5 uM measured after 10 mins
Series [6] in a line: Aqueous solubility of the compound at pH 6.5. The class given is physicochemical. As to conditions: buffer.
Series [7] addresses Indoleamine 2,3-dioxygenase 1 (Mus musculus) (UniProt P28776). Description: In vivo inhibition of IDO1 in nu/nu mouse xenografted with human SK-OV-3 cells assessed as reduction in kynurenine level at 60 mg/kg, po qd by HPLC-MS/MS analysis relative to control. Format: functional, organism-based.
The next series can be described thus: in vivo. As to conditions: nu/nu, mouse, tumor, po, 60 mg/kg.
A short description of series [8]: Solubility of the compound at pH 6.5 to 7.4. Format: physicochemical. As to conditions: buffer.
A short description of series [9]: AUC (0 to 24 hrs) in nu/nu mouse xenografted with human SK-OV-3 cells measured in tumor at 100 mg/kg, po bid by uHPLC-MS/MS analysis. The class given is ADME, organism-based. Also on record: time < 24 hr, route oral, dose 100 mg/kg. Background: A xenograft is tissue or cells of one species grown in another, often human tumour cells in immunodeficient mice.

The structures appear in SMILES notation.

Indoleamine 2,3-dioxygenase 1 (Mus musculus, UniProt P28776), sequence (P28776 whole entry): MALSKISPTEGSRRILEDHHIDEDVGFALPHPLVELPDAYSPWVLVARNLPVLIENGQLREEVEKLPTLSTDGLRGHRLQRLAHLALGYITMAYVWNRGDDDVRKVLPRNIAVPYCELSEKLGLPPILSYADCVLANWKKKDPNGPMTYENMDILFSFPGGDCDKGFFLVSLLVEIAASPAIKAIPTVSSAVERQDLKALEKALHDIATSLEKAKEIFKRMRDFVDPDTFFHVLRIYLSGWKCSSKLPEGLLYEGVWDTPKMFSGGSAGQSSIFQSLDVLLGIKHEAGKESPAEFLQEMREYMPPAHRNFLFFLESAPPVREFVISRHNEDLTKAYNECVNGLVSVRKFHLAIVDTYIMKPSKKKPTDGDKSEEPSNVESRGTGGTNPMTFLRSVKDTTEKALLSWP
Indoleamine 2,3-dioxygenase 1 (Mus musculus), sequence (P28776 whole entry, looked up): as the sequence (P28776 whole entry) above
Description for in vivo: AUC (0 to 24 hrs) in nu/nu mouse xenografted with human SK-OV-3 cells measured in tumor at 60 mg/kg, po qd by uHPLC-MS/MS analysis

As for `C[C@@H](NC(=O)Nc1ccc(Cl)cc1)[C@H]1CC[C@@H](c2ccnc3ccc(F)cc32)CC1`, the results for the IC50 in series [1], in series [2] and in series [3] were 280 nM, 67 nM and 20 nM, respectively. Also, the values for the amount remaining at 10 min, 0.5 µM in “in vitro [4]” and in “in vitro [5]” were 14% and 52%, respectively.

On to `C[C@@H](NC(=O)Cc1ccc(Cl)cc1)[C@H]1CC[C@@H](c2ccnc3ccc(F)cc32)CC1`, for which the half-inhibitory concentration (IC50) – broadly, the concentration that inhibits the measured activity by half – was 779 nM in series [1], 651 nM in [2] and 125 nM in series [3]. Further, the fraction remaining (commonly what is left of the initial amount, in per cent) at 10 min, 0.5 µM turned out to be 2% in the series “in vitro [4]” and 8% in “in vitro [5]”.

On to `C[C@@H](NS(=O)(=O)c1ccc(Cl)cc1)[C@H]1CC[C@@H](c2ccnc3ccc(F)cc32)CC1`, for which the IC50 in series [1] was 484 nM; in series [2], over 1000 nM; in series [3], over 1000 nM. Moreover, the amount remaining at 10 min, 0.5 µM in “in vitro [4]” was under 1%; in the series “in vitro [5]”, 29%.

As to `C[C@@H](NC(=O)C1CCCCC1)[C@H]1CC[C@@H](c2ccnc3ccc(F)cc32)CC1`, the IC50 in series [1] was determined as 294 nM; in [2], 86 nM; in [3], 12 nM. Further, the amount remaining at 10 min, 0.5 µM in “in vitro [4]” was found to be 5%; in the series “in vitro [5]”, 6%.

As to `C[C@@H](CNC(=O)c1ccc(Cl)cc1)[C@H]1CC[C@@H](c2ccnc3ccc(F)cc32)CC1`, the half-maximal inhibitory concentration (IC50) in series [1] came out at 158 nM; in series [2], 772 nM; in series [3], 261 nM. Further, the amount remaining at 10 min, 0.5 µM in “in vitro [4]” turned out to be 32%; in “in vitro [5]”, 56%.

For `COc1ncc(NC(=O)[C@H](C)[C@H]2CC[C@@H](c3ccnc4ccc(F)cc43)CC2)cn1`, the IC50 in series [1] is 80 nM; in series [2] it was 92 nM; in [3], 10 nM. Further, the amount remaining at 10 min, 0.5 µM in the series “in vitro [4]” was determined as 51%; in “in vitro [5]”, 73%.

Turning to `COc1ccc(C(=O)N[C@H](C)[C@H]2CC[C@@H](c3ccnc4ccc(F)cc43)CC2)cc1N1CCOCC1`, the solubility (in general, the concentration that dissolves in the medium under given conditions) in series [6] is under 1 µg/mL. Also, the results for the IC50 in series [1], in series [2] and in series [3] were 35 nM, 20 nM and 7 nM, respectively. For the same compound, the share remaining at 10 min, 0.5 µM turned out to be 4% in “in vitro [4]” and 2% in “in vitro [5]”.

For `C[C@@H](NC(=O)C12CCC(Cl)(CC1)CC2)[C@H]1CC[C@@H](c2ccnc3ccc(F)cc32)CC1`, the values for the IC50 in series [1] and in [2] were 579 nM and 56 nM, respectively. The fraction remaining at 10 min, 0.5 µM in the series “in vitro [4]” amounted to 10%; in the series “in vitro [5]”, 9%.

Take `C[C@@H](C(=O)Nc1ccc(Cl)cc1)[C@H]1CC[C@@H](c2ccnc3ccc(F)cc32)CC1`: in series [7], the inhibition – broadly, the drop in the measured response relative to a control, in per cent – was 61%. For the same compound, the AUC (as a rule, concentration integrated over time) at 24 h in “in vivo” came out at 34.9 µM·h. The amount remaining at 10 min, 0.5 µM in the series “in vitro [4]” worked out at 31%; in “in vitro [5]”, 84%.

In the case of `C[C@@H](NC(=O)c1ccc(-c2ccccc2)cc1)[C@H]1CC[C@@H](c2ccnc3ccc(F)cc32)CC1`, the solubility in series [8] is under 1 µg/mL. Moreover, the IC50 is 22 nM in [1], 3 nM in [2] and 2 nM in [3]. The fraction remaining at 10 min, 0.5 µM in the series “in vitro [4]” came to 70%; in “in vitro [5]” it was 59%.

With `C[C@@H](C(=O)NC1CCCCC1)[C@H]1CC[C@@H](c2ccnc3ccc(F)cc32)CC1`, the IC50 in series [1] came to 470 nM; in series [2] it was 287 nM; in series [3], 18 nM. In addition, the fraction remaining at 10 min, 0.5 µM in the series “in vitro [4]” and in the series “in vitro [5]” was under 1% throughout.

`C[C@@H](c1nc2ccc(Cl)cc2[nH]1)[C@H]1CC[C@@H](c2ccnc3ccc(F)cc32)CC1`: the IC50 in [1] amounted to 28 nM; in [2], 12 nM; in series [3] it was 4 nM. In addition, the values for the amount remaining at 10 min, 0.5 µM in “in vitro [4]” and in “in vitro [5]” were 12% and 48%, respectively.

With `NS(=O)(=O)NCCNc1nonc1C(=NO)Nc1ccc(F)c(Br)c1` [EPACADOSTAT], the AUC at 24 h in [9] was 48 µM·h.

Take `C[C@@H](CNc1ccc(Cl)cc1)[C@H]1CC[C@@H](c2ccnc3ccc(F)cc32)CC1`: the IC50 in series [1] came to 44 nM; in series [2] it was 62 nM; in series [3] it was 7 nM. In addition, the amount remaining at 10 min, 0.5 µM in “in vitro [4]” and in “in vitro [5]” was 80% throughout.

As to `C[C@@H](NCc1ccc(Cl)cc1)[C@H]1CC[C@@H](c2ccnc3ccc(F)cc32)CC1`, the half-maximal inhibitory concentration (IC50) is over 1000 nM in series [1], over 1000 nM in [2] and 745 nM in [3]. The amount remaining at 10 min, 0.5 µM amounted to 2% in the series “in vitro [4]” and 34% in the series “in vitro [5]”.

For the compound `C[C@H](NC(=O)[C@H](C)[C@H]1CC[C@@H](c2ccnc3ccc(F)cc32)CC1)c1ccc(Cl)cc1`, the figures for the IC50 in [1], in [2] and in series [3] were over 1000 nM, 870 nM and 67 nM, respectively. Besides, the fraction remaining at 10 min, 0.5 µM in the series “in vitro [4]” was found to be 5%; in the series “in vitro [5]”, 19%.

For `C[C@@H](NC(=O)c1ccccc1Cl)[C@H]1CC[C@@H](c2ccnc3ccc(F)cc32)CC1`, the IC50 in series [1] is 135 nM; in [2] it was 215 nM; in [3], 12 nM. In addition, the share remaining at 10 min, 0.5 µM was 7% in “in vitro [4]” and 21% in the series “in vitro [5]”.

Regarding `C[C@@H](NC(=O)c1cccc(Cl)c1)[C@H]1CC[C@@H](c2ccnc3ccc(F)cc32)CC1`, the IC50 was found to be 97 nM in series [1], 48 nM in [2] and 7 nM in [3]. The share remaining at 10 min, 0.5 µM in the series “in vitro [4]” is 9%; in the series “in vitro [5]” it was 39%.
